The text below walks through data of US20260191933A1, “PHARMACEUTICAL COMBINATIONS AND USES THEREOF” (The University of Melbourne, priority 2022, published 2026).

The subject of assay [1] is 12-week-HFHS-diet-fed obese mice. The assay can be described thus: Intranasal PZ6005 in obese mice: body weight, tissue-specific adiposity, fat mass. It is filed as in vivo, C57BL/6J mice. The settings on record: for body weight lost at the end of the experiment: day 14. As for the experimental part: (§1) Metabolic measurements were undertaken in the Melbourne Mouse Metabolic Phenotyping Platform (The University of Melbourne, Australia). Glucose tolerance tests were performed on 6 h fasted conscious mice respectively by injecting D-glucose (2 mg/g of lean body mass and 1 mg/g lean mass for db/db and HFHS+STZ mice) into the peritoneal cavity and measuring glucose in tail blood immediately before and at 15, 30, 45, 60, 90 and 120 min after injection using an Accu-Check glucometer (Roche, Germany). The areas under glucose excursion curves were determined and expressed as mmol/l×min. Fasted (12 h fast) plasma insulin or glucose levels were determined using a Rat/Mouse Insulin ELISA (EZRMI-13K, Merck Millipore, CA) or an Accu-Check glucometer respectively. The HOMA-IR was calculated using the equation [(glucose×insulin)/405]. Adiposity was measured using TD-NMR minispec (Bruker Optics Inc., Billerica, MA).

For assay [2], the system named is GLP-1 receptor signalling (pERK) in the ARC. The assay can be described thus: I.C.V. PZ6005 and/or S.C. liraglutide: ARC pERK +ve. cells after liraglutide. It is filed as in vivo, C57BL/6j mice. The settings on record: after 28-day treatment; compared to controls and liraglutide alone.
In assay [3] the test system is 12-week-HFHS-diet-fed obese mice. Put plainly: Intranasal PZ6005 in obese mice: I.P. GTT, ITT, fasting glucose. It is filed as in vivo, C57BL/6J mice. As for the experimental part: as §1
Assay [4] deals with insulin induced p-AKT signalling in the ARC. Put plainly: I.C.V. fluorosamine: insulin-induced p-AKT in the ARC. It is filed as in vivo, C57BL/6J mice. The settings on record: following 10 days I.C.V. treatment. As for the experimental part: (§2) Mice were injected intraperitoneally with vehicle (PBS) or insulin (3 mU/g, i.p., Actrapid, Nova Nordisk, Denmark) and mice were transcardially perfused (as described above) 15 min with 10% neutral buffered formalin. The brains were post-fixed for 16 h on a rocking platform at RT and then kept for two days in 30% sucrose in PBS to cryoprotect the tissue, before freezing on dry ice. 30 μm sections were cut in the coronal plane throughout the entire rostral-caudal extent of the hypothalamus. Sections were pre-treated for 10 mins in 0.3% glycine, washed in PBS-T and incubated for 10 min in 0.03% SDS. Sections were then blocked in 5% blocking buffer for 1 h at RT and incubated for 48 h with rabbit anti-p-AKT (Ser-473) (1:300; #4060, Cell Signaling Technology, Beverly, MA) in 1% blocking buffer. Sections were then incubated in 5% blocking buffer containing either goat anti-rabbit Alexa Fluor 647 (ab150083, Abcam, Cambridge, UK) or biotinylated goat anti-rabbit (BA-1000, Vector Laboratories, CA, no sodium azide in blocking buffer). […]

For another assay, the system named is diet-induced obese mice. Put plainly: I.C.V. PZ6005 and/or S.C. liraglutide, 28 days: body weight, adiposity, food intake, energy expenditure. It is filed as in vivo, C57BL/6j mice. As for the experimental part:
as §1
Mice were acclimated for 24 h and then monitored for 48 h in an environmentally controlled Promethion Metabolic Screening System (Sable Systems International, NV) fitted with indirect open circuit calorimetry, food consumption and activity monitors to measure activity, caloric intake and energy expenditure. Respiratory quotients were calculated as the ratio of CO2 production over O2 consumption respiratory exchange ratio and energy expenditure was calculated using the Weir equation (Kcal h−1=60×(0.003941×VO2+0.001106×VCO2). To account for difference in body mass/composition energy expenditure was analysed and adjusted using ANCOVA using scripts available at the National Mouse Metabolic Phenotyping Centers (MMPC, Nashville, TN, USA) Energy Expenditure Analysis Page (https://www.mmpc.org/shared/regression.aspx).

Assay [5] has as its system ARC insulin receptor signalling (pAKT). The assay can be described thus: I.C.V. PZ6005 and/or S.C. liraglutide: ARC pAKT +ve. cells after insulin. It is filed as in vivo, C57BL/6j mice. The settings on record: after 28-day treatment; compared with liraglutide alone group. As for the experimental part:
as §2

The mark [6] stands for this setting: intranasal 1 mg treatment, 14 days.

The structures appear in SMILES notation.

Turning to `CC(=O)NC1C(OC(C)=O)OC(COC(C)=O)[C@@H](F)C1OC(C)=O` (stereo partly shown) [PZ6005, per-O-acetylated-4-F-N-acetylglucosamine], in assay [1] (diet-induced obese mice, intranasal 14 days), the “whole-body metabolic improvements observed with intracerebroventricular delivery” value is given as “recapitulated”. Moreover, in assay [1] (setting [6]), the “mass of epiWAT, BAT and liver” value was “decreased”. Besides, the “post-treatment fat mass decreased by, compared to the pre-treatment mass” value in assay [1] (setting [6]) was 12.59±2.29%. Further, the “body weight lost at the end of the experiment” value in assay [1] (intranasal 1 mg treatment) was found to be 16.32±1.41%; in assay [1] (intranasal highest dose (5 mg)), 6.36±0.88%. In addition, the entries for the “day from which weight was robustly decreased” value in assay [1] (intranasal 1 mg/animal/day) and in assay [1] (intranasal 5 mg/animal/day) were 7 days and 3 days, respectively. The “post-treatment fat mass diminished by, compared to the pre-treatment mass” value in assay [1] (intranasal 5 mg treatment, 14 days) stood at 23.21±9.27%. For the same compound, the tissue mass result in assay [1] (intranasal highest dose, 14 days) was “remarkedly reduced”. In addition, the “ARC pERK +ve. cells” value in assay [2] is recorded as “markedly increased”. Further, the “fasting (12 hrs) glucose level” value in assay [3] (both doses of intranasal treatment) is listed as “Reduction”. The “insulin sensitivity (I.P. ITT)” value in assay [3] (intranasal 1 or 5 mg/animal/day, 4 hrs fasting) is “enhanced insulin sensitivity”. For the same compound, in assay [3] (intranasal 1 or 5 mg/animal/day, 6 hrs fasting, vs control littermates), the “glucose tolerance (I.P. GTT)” value was “better glucose tolerance”. Besides, the “insulin induced p-AKT signalling in the ARC” value in assay [4] is “enhanced”. The “mass of ingWAT, epiWAT and the liver” value with diet-induced obese mice (28-day treatment, compared with control littermates) was “lower mass”. The “difference in fat mass between the mid- and post-treatment” value in the assay with diet-induced obese mice (14 days after last PZ6005 dose) was “no significant difference”. For the same compound, the “energy expenditure and oxygen consumption” value in the assay on diet-induced obese mice (Day 8-Day 11 of the treatment, day and night) is reported as “consumed more energy”. In the assay on diet-induced obese mice (day 28, PZ6005 100 μg/animal I.C.V. every other day first 14 days, liraglutide 200 μg/kg/day S.C. 28 days), the “mean percentage change in weight” value is on record as −13.02±1.15%. Further, the “ARC pAKT +ve. cells” value in assay [5] is reported as “more ARC pAKT +ve. cells”.
